From PubChem BioAssay AID2060902 (Molecular Pharmacology Branch, DTP, NCI, 2025)

Test system: 485368-065-R3-J5-PDC spheroids with HUVEC/MSC, viability
Assay: Anticancer human tumor 485368-065-R3-J5-PDC patient-derived pancreatic carcinoma cell line growth inhibition [RAS]
Settings: for viability, T/C: stronger effect = lower value
Excerpt: RAS pathway inhibitors in Combinations in Complex Spheroids
A high-throughput screen of multi-cell type tumor spheroids was designed to identify active combinations of RAS pathway inhibitors and targeted small molecules. Complex spheroids include a stromal component modeled by human endothelial cells (HUVEC) and fibroblasts modeled by human mesenchymal stem cells (MSCs). The concentration ranges selected for each drug and investigational agent were based upon clinically achievable concentrations if the clinical Cmax of the agent was known.
Compounds. The drugs and investigational agents: abemaciclib (NSC768073), cobimetinib (NSC768068), divarasib (GDC6063, NSC841802), docetaxel (NSC628503), GDC-1971 (RLY-1971, NSC841576), gemcitabine (NSC613327), inavolisib (NSC800729), ipatasertib (NSC767898), KB-0742 (NSC834161), MRTX-1133 (NSC836407), osimertinib (NSC779217), RMC-4630 (NSC839698), RMC-6236 (NSC851965), RMC-6291 (NSC852671), Ro-3306 (NSC812927), sapanisertib (NSC764658), SN-38 (NSC673596), staurosporine (NSC755774), SY5609 (NSC837396), and tovorafenib (DAY101, NSC766906), were obtained from the National Cancer Institute (NCI) Developmental Therapeutics Program Chemical Repository. The FDA-approved anticancer drug set is available from the NCI Developmental Therapeutics Program. […] The stock solutions were prepared in dimethyl sulfoxide (DMSO, Sigma-Aldrich, St. Louis, MO, cat. D2650) at 800-fold the tested concentration and stored at -70 degrees C prior to their use. All drugs and investigational agents were tested over a range starting from a high concentration at or near the clinical Cmax and decreasing in half-log increments. If the clinical Cmax for an agent had not been determined, the highest concentration tested was 10 microM.
Cell Culture. All cells were maintained in an incubator at 37 degrees C and 5% CO2 with 95% humidity. The PDC lines were cultured according to standard operating procedures established by the NCI PDMR. All PDCs were thawed and cultured in Matrigel-coated flasks prepared with a working solution of 1X Ham's F-12 nutrient mix, without supplementation (Invitrogen, Waltham, MA, cat. 11765054), 100 U/mL penicillin-streptomycin (Invitrogen, cat. 15140122), and 2.5% Matrigel (Corning Inc., Corning, NY, cat. 354248) for the first three passages. The 362531-283-R-J2-PDC and 782815-120-R-J1-PDC lines were cultured in 6C/Colon 1B media, which includes advanced DMEM/F-12 (Thermo Fisher Scientific, cat. 12634028), 10 mM HEPES (Thermo Fisher Scientific, cat. 15630080), 1X GlutaMAX supplement (Thermo Fisher Scientific, cat. 35050061), 0.1 mg/mL primocin (InvivoGen, San Diego, CA, cat. ant-pm-2), 10% defined fetal bovine serum, heat inactivated (HyClone Laboratories Inc., Logan, UT, cat. SH30070.03HI), 50% L-WRN conditioned media (ATCC, cat. CRL-3276), 1.25 mM N-Acetyl-L-cysteine (Sigma-Aldrich, cat. A9165), 10 mM nicotinamide (Sigma-Aldrich, cat. N0636), 1X B-27 supplement (Thermo Fisher Scientific, cat. 17504044), 1X N-2 supplement (Thermo Fisher Scientific, cat. 17502048), 50 ng/mL human EGF (Thermo Fisher Scientific, cat. PHG0311), and 10 microM Y-27632 dihydrochloride (Tocris Bioscience, cat. 1254). The K12877-001-R-J1-PDC line was cultured in 6I media, which includes all 6C/Colon 1B media plus 10 ng/mL human FGF-10 (PeproTech, cat. 100-26), 1 ng/mL human FGF-2 (PeproTech, cat. 100-18B), 1 µM prostaglandin E2 (Tocris Bioscience, cat. 2296), […] hydrocortisone (Sigma-Aldrich, cat. H4001), and […] bovine insulin (Sigma-Aldrich, cat. I6634). The K86415-001-R-J1-PDC line was cultured in 6D media, which includes all 6C/Colon 1B media components minus the L-WRN conditioned media. The 485176-168-R4-J1-PDC was cultured in PANC media, which includes all 6C/Colon 1B media plus 100 ng/mL human FGF-10 (PeproTech, cat. 100-26), 500 nM SB-431542 (Selleckchem, cat. S1067), and 10 nM gastrin (Tocris Bioscience, cat. 3006). […]

[1] = compound alone, run of 07/15/2024
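Note: spheroids exposed to agents for seven days before readout.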

## C#Cc1c(F)ccc2cc(O)cc(-c3ncc4c(N5CC6CCC(C5)N6)nc(OCC56CCCN5CC(F)C6)nc4c3F)c12 (stereo not drawn)
Compound 0.0316 µM
  viability, T/C: 105% [middle of 8 runs]
Compound 0.1 µM
  viability, T/C: 108% [middle of 8 runs]
Compound 0.316 µM
  viability, T/C: 100% [middle of 8 runs]
Compound 1 µM
  viability, T/C: 99.4% [middle of 8 runs]
Compound 3.16 µM
  viability, T/C: 76.5% [middle of 8 runs]
Compound 10 µM
  viability, T/C: 42.4% [middle of 8 runs]
[1]
  IC50: 7.73 µM [middle of 8 runs]

## C=CC(=O)N1CCN(c2nc(OCC3CCCN3C)nc3c(F)c(-c4nc(N)cc(C)c4C(F)(F)F)c(Cl)cc23)C(C)C1 (stereo not drawn)
Compound 0.00316 µM
  viability, T/C: 106% [middle of 12 runs]
Compound 0.01 µM, compound 0.0316 µM
  viability, T/C: 101%
Compound 0.01 µM, compound 0.1 µM
  viability, T/C: 98.5%
Compound 0.01 µM, compound 0.316 µM
  viability, T/C: 111%
Compound 0.01 µM, compound 1 µM
  viability, T/C: 97%
Compound 0.01 µM
  viability, T/C: 104% [middle of 12 runs]
Compound 0.0316 µM, compound 0.00316 µM
  viability, T/C: 102%
Compound 0.0316 µM, compound 0.01 µM
  viability, T/C: 110%
Compound 0.0316 µM, compound 0.1 µM
  viability, T/C: 107%
Compound 0.0316 µM, compound 0.316 µM
  viability, T/C: 107%
Compound 0.0316 µM, compound 1 µM
  viability, T/C: 113%
Compound 0.0316 µM
  viability, T/C: 106% [middle of 13 runs]
Compound 0.1 µM, compound 0.00316 µM
  viability, T/C: 116%
Compound 0.1 µM, compound 0.01 µM
  viability, T/C: 112%
Compound 0.1 µM, compound 0.0316 µM
  viability, T/C: 99.1%
Compound 0.1 µM, compound 0.316 µM
  viability, T/C: 107%
Compound 0.1 µM, compound 1 µM
  viability, T/C: 94%
Compound 0.1 µM
  viability, T/C: 101% [middle of 13 runs]
Compound 0.316 µM, compound 0.00316 µM
  viability, T/C: 103%
Compound 0.316 µM, compound 0.01 µM
  viability, T/C: 104%
Compound 0.316 µM, compound 0.0316 µM
  viability, T/C: 102%
Compound 0.316 µM, compound 0.1 µM
  viability, T/C: 108%
Compound 0.316 µM, compound 1 µM
  viability, T/C: 100%
Compound 0.316 µM
  viability, T/C: 106% [middle of 13 runs]
Compound 1 µM, compound 0.00316 µM
  viability, T/C: 112%
Compound 1 µM, compound 0.01 µM
  viability, T/C: 106%
Compound 1 µM, compound 0.0316 µM
  viability, T/C: 108%
Compound 1 µM, compound 0.1 µM
  viability, T/C: 101%
Compound 1 µM, compound 0.316 µM
  viability, T/C: 96.7%
Compound 1 µM
  viability, T/C: 101% [middle of 13 runs]
[1]
  IC50: > 1000 nM
Curve of compound
  IC50: > 1000 nM

## C=CC(=O)Nc1cc(Nc2nccc(-c3cn(C)c4ccccc34)n2)c(OC)cc1N(C)CCN(C)C
Compound 0.00316 µM
  viability, T/C: 108% [middle of 4 runs]
Compound 0.01 µM
  viability, T/C: 94.1% [middle of 4 runs]
Compound 0.0316 µM
  viability, T/C: 109% [middle of 4 runs]
Compound 0.1 µM
  viability, T/C: 106% [middle of 4 runs]
Compound 0.316 µM
  viability, T/C: 104% [middle of 4 runs]
Compound 1 µM
  viability, T/C: 97.5% [middle of 4 runs]
Curve of compound
  IC50: > 1000 nM

## CC(C)n1nc(-c2ccc3oc(N)nc3c2)c2c(N)ncnc21
Compound 0.000316 µM
  viability, T/C: 106% [middle of 4 runs]
Compound 0.001 µM
  viability, T/C: 91.4% [middle of 4 runs]
Compound 0.00316 µM
  viability, T/C: 89% [middle of 4 runs]
Compound 0.01 µM
  viability, T/C: 65.8% [middle of 4 runs]
Compound 0.0316 µM
  viability, T/C: 42.8% [middle of 4 runs]
Compound 0.1 µM
  viability, T/C: 23.6% [middle of 4 runs]
Curve of compound
  IC50: 22.7 nM [middle of 4 runs]
